Usually IC50 stands for the point on the concentration scale where inhibition reaches its midpoint.

The target of one data set is T1, ACSS2 (Homo sapiens, UniProt Q9NR19).
T1 construct: endogenous fatty acid synthesis activity in the human HCT-15 cancer cell line; endogenous in cells; host or cells: HCT-15
The data set is described as follows: Cellular assay of 14C acetate incorporation into histones (IC50 ACSS2 cellular histone). The data set is classed as cell-based. As to conditions: HCT-15 cells. In outline: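 Human HCT-15 cells preincubated 1 h with compound (0.25% DMSO final), then pulsed 3 h with 14C-acetate. Histones were acid-extracted (0.2 M HCl, overnight, 4° C) after Triton lysis in sodium-butyrate buffer; incorporated 14C counted by liquid scintillation (CPM) to give IC50.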

The subject of the next data set is CHO-K1 cells. The experiment in a line: Micronucleus assay (MNT) in vitro. Format: cell-based. Also on record: key: A: negative, putative negative (micronuclei detected beyond threshold of 60% cyctotoxicity); B: positive. As to conditions: 24 hrs treatment, 0.2 µM to 100 µM. The method, then: The in vitro MNT assay is performed in CHO-K1 cells due to their stable and welI-characterized karyotype, high sensitivity and suitability for a high content imaging approach. They have a basal spontaneous micronucleus frequency of 3-4%.
24 hrs after plating CHO-K1 cells are treated with test compounds for 24 hrs (in duplicates; fixed concentration ranges from 0.2 µM to 100 µM in 2-fold dilution steps). After a medium change cells are incubated for 24 hrs with Cytochalasin B to block cytokinesis and are then fixed and nuclei / micronuclei visualized with a DNA stain. Images are acquired with the Molecular Devices high content imagers IXU or IXM and are analyzed with the dedicated MetaXpress software micronucleus module. Criteria for scoring of micronuclei (MN) are the following: • diameter of the MN should be less than ⅓ of the main nucleus • MN should be separated from or marginally overlap with main nucleus (= no blebs) • MN should have similar staining as the main nucleus At least 1000 binucleated cells are evaluated per treatment replicate. Mitomycin C is used as reference stimulator of micronucleus formation. Cytotoxicity is evaluated in parallel and defined by comparing total nuclei count in compound-treated samples to neutral control samples treated with vehicle only (1% DMSO) (100% cytotoxicity means all cells are dead or lost).
A test compound is regarded as POSITIVE if generation of micronuclei and exhibition of less than 60% cytotoxicity at the same concentration can be observed.
Compounds are scored only in the soluble concentration range. Experimental data of the compounds shown in Table 1 in the MNT assay are shown in Table 2 below and classified in the following groups: […]

T1 sequence (Q9NR19 whole entry): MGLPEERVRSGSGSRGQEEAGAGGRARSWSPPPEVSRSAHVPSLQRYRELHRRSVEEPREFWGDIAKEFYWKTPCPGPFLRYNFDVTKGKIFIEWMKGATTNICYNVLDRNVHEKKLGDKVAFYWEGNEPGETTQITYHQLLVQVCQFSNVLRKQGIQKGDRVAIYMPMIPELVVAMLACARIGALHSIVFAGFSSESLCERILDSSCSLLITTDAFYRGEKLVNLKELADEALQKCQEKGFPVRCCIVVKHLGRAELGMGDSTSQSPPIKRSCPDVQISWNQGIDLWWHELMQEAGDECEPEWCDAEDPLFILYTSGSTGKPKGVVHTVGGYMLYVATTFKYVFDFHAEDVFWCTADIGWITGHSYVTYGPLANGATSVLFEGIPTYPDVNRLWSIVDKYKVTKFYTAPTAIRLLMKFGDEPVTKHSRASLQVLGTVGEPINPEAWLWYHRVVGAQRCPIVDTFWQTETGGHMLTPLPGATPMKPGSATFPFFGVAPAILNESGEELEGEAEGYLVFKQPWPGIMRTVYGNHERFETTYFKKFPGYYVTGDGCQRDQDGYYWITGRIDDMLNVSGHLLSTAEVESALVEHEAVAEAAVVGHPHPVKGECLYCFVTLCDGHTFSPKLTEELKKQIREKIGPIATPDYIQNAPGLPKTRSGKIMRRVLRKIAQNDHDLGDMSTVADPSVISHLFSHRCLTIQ

For the compound `CCc1c(C(O)(c2ccccc2)c2ccccc2)nc2cc(Cl)c(C(=O)Nc3ncn(CC)n3)cn12` [Compound 14, 7-Chloro-3-ethyl-2-(hydroxy-diphenylmethyl)-imidazo[1,2-a]pyridine-6-carboxylic acid (1-ethyl-1H-[1,2,4]triazol-3-yl)-amide], at ACSS2, the IC50 was in the range of 1 to 10 nM. The MNT result in the data set on CHO-K1 cells was “A”.
Turning to `CCn1cnc(NC(=O)c2cc3c(nc2OC)nc(C(O)(c2ccccc2)c2ccccc2)n3CC)n1` [Compound 103, 1-ethyl-N-(1-ethyl-1H-1,2,4-triazol-3-yl)-2-(hydroxydiphenylmethyl)-5-methoxy-1H-imidazo[4,5-b]pyridine-6-carboxamide], the concentration for half-maximal inhibition (IC50) at ACSS2 fell in the range of 0.01 to 1 nM. Further, the MNT entry in the data set on CHO-K1 cells is given as “A”.
The matching figures for `CCn1cnc(NC(=O)c2cc3c(nc2F)nc(C(O)(c2ccccc2)c2ccccc2)n3CC)n1` [Compound 89, 1-ethyl-N-(1-ethyl-1H-1,2,4-triazol-3-yl)-5-fluoro-2-(hydroxydiphenylmethyl)-1H-imidazo[4,5-b]pyridine-6-carboxamide]: 1 to 10 nM and “A”.
The matching figures for `CCc1c(C(O)(c2ccccc2)c2ccccc2)nn2cc(OC)c(C(=O)Nc3ncn(CC)n3)cc12` [Compound 11, 3-Ethyl-2-(hydroxy-diphenyl-methyl)-6-methoxy-pyrazolo[1,5-a]pyridine-5-carboxylic acid (1-ethyl-1H-[1,2,4]triazol-3-yl)-amide]: 0.01 to 1 nM and “A”.
With `CCc1c(C(O)(c2ccccc2)c2ccccc2)nc2ccc(C(=O)Nc3ncn(CC)n3)cn12` [Compound 25, 3-Ethyl-2-(hydroxy-diphenyl-methyl)-imidazo[1,2-a]pyridine-6-carboxylic acid (1-ethyl-1H-[1,2,4]triazol-3-yl)-amide], at ACSS2, the IC50 was in the range of 0.01 to 1 nM. In addition, the MNT result with CHO-K1 cells is on record as “A”.
The corresponding values for `CCc1c(C(O)(c2ccccc2)c2ccccc2)nc2cc(Cl)c(C(=O)Nc3cnn(CC)c3)cn12` [Compound 19, 7-Chloro-3-ethyl-2-(hydroxy-diphenylmethyl)-imidazo[1,2-a]pyridine-6-carboxylic acid (1-ethyl-1H-pyrazol-4-yl)-amide] are 10 to 100 nM and “A”.
With `CCc1c(C(O)(c2ccccc2F)c2ccccc2F)nc2cc(Cl)c(C(=O)Nc3ncn(CC)n3)cn12` [Compound 31, 2-[Bis-(2-fluoro-phenyl)-hydroxy-methyl]-7-chloro-3-ethyl-imidazo[1,2-a]pyridine-6-carboxylic acid (1-ethyl-1H-[1,2,4]triazol-3-yl)-amide], the IC50 on ACSS2 is 0.01 to 1 nM. The MNT entry with CHO-K1 cells is listed as “A”.

(Values after patent publication US20230271956A1, “AMIDE DERIVATIVES” (Merck Patent GmbH, priority 2020, published 2023).)
